The values below are quoted from earlier work in patent US20120142546A1, “HYPOMETHYLATED GENES IN CANCER” (THE JOHNS HOPKINS UNIVERSITY, priority 2007, published 2012).

This data set relates to cancers involving the lung, esophagus, or pleura.

In the case of `Nc1ncn([C@H]2C[C@H](O)[C@@H](CO)O2)c(=O)n1` [5-aza-2′-deoxycytidine], the “NY-ESO-1 and MAGEA3 expression in treated patients” value is given as “upregulated in a proportion of patients”.
